Measurements taken from patent US20040266766A1, “Selective urokinase inhibitors” (Wilex AG, priority 2001, published 2004).
Counter-ions that a name gives are not always drawn. Like-named read-outs stand apart in the source and are kept apart here.

Tests used:
urokinase (uPA) = biological target: T1, urokinase (uPA) (Homo sapiens, UniProt P00749); test: In vitro inhibition of urokinase (Ki according to Dixon, chromogenic substrate); format: biochemical
T1 construct: purchased Calbiochem-Novabiochem GmbH, Bad Soden, Germany
Experimental: (§1) In order to determine the inhibitory activity, 200 μl Tris buffer (0.05 mol/l containing the inhibitor, 0.154 mol/l NaCl, pH 8.0), 25 μl substrate (Pefachrome uPA, Pefachrome PL or Pefabloc TH in H2O; Pentapharm Ltd, Basle, Switzerland) and 50 μl urokinase (Calbiochem-Novabiochem GmbH, Bad Soden, Germany) or another appropriate protease e.g. plasmin, thrombin or FXa are incubated for 10 minutes at 30° C. After ca. 30 minutes and 30 cycles the absorption is determined at 405 nm by means of a microplate reader (Mediators PHL, Aureon Biosystems, Vienna, Austria). The Ki values were determined according to Dixon by linear regression using a computer program.

Plasmin = Plasmin (Homo sapiens, UniProt P00747); test: In vitro inhibition of plasmin (Ki according to Dixon); format: biochemical
Sequence of Plasmin (P00747 581-810 limits assumed, species assumed): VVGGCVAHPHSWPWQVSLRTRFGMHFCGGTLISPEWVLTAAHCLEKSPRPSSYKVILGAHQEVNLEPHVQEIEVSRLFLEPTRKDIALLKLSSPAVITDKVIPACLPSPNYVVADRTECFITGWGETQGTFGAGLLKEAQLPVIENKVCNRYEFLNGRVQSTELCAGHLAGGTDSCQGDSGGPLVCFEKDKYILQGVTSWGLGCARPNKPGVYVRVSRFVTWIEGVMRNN
Sequence of Plasmin (P00747 97-580 partner limits assumed, species assumed): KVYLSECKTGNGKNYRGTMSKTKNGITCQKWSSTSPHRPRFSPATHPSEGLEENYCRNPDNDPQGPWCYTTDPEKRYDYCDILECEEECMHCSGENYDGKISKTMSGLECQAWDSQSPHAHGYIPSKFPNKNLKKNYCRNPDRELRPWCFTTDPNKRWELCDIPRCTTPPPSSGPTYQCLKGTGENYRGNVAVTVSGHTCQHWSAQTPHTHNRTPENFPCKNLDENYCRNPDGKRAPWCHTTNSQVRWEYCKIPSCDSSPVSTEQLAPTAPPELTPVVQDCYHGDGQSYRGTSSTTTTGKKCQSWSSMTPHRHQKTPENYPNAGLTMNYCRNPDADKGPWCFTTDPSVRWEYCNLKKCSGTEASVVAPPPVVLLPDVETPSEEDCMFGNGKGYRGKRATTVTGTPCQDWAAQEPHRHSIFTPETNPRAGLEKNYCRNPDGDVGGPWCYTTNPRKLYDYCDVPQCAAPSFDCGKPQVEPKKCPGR
Experimental: as §1

Thrombin = Thrombin (Homo sapiens, UniProt P00734); test: In vitro inhibition of thrombin (Ki according to Dixon); format: biochemical
Experimental: as §1

PK = PK (Homo sapiens, UniProt P03952); test: In vitro inhibition of PK (Ki); format: biochemical; settings: summary table
Sequence of PK (P03952 20-638): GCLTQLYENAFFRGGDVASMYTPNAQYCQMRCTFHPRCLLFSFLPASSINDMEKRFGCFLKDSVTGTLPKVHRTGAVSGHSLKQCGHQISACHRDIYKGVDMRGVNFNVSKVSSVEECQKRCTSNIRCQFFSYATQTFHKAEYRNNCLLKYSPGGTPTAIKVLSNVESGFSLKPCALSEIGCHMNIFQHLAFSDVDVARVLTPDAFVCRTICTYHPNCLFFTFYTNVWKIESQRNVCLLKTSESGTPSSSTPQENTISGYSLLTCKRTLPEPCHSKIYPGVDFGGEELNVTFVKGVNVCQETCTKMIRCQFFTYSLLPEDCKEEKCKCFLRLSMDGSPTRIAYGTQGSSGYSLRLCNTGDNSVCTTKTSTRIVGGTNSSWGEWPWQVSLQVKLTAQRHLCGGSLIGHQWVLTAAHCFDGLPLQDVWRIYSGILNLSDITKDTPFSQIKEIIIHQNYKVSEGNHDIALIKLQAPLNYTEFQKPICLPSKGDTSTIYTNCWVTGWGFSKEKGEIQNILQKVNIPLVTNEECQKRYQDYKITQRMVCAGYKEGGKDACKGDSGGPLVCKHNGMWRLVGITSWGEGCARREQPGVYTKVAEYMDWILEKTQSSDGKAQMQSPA
Experimental: as §1

Caco-2 cell monolayers = test: Caco-assay: transport across Caco-2 cell monolayers; format: in vitro ADME, human; settings: for % amount in the basolateral compartment: 10 μg/ml apical, four hours
Experimental: Transport of the compounds WX-508, WXC-316, WXC-318, WXC-324, WXC-340, WX-532, WX-538, WX-550 and WX-582 across Caco-2 cell monolayers was investigated. In this experiment the bioavailability of the said compounds after oral administration was assessed.
Caco-2-cells (American Type Culture Collection, Rockville, Md., USA) were cultured in Dulbecco's modified Eagle medium (DMEM) (Life Technologies, Gibco BRL, UK) containing 10% vol/vol heat-denatured foetal calf serum (FCS), 1% vol/vol non-essential amino acids, 160 U/ml benzylpenicillin and 100 U/ml streptomycin (Sigma Chemical, St. Louis, Mo., USA). The cells are kept at 37° C. in an atmosphere comprising 95% air and 5% CO2 at 90% relative air humidity. The cells are cultured in […] culture flasks, the medium being replaced every second day and the cells are trypsinized once per week.
For the transport investigations the Caco-2 cells are cultured on porous polycarbonate filter membranes having a pore size of 0.4 μm and a surface of 4.7 cm^2 in clusters of 6 wells (Costar Transwell, Badhoevedorp, Netherlands). The cells are inoculated on each filter at an initial density of 10^4 cells/cm^2. These cells are kept at 37° C. in one of the atmospheres described above. The medium is replaced every second day for a period of three weeks.
On the day of the transport experiment the culture medium was replaced by the same volume of Hank's balanced saline solution (HBSS) buffered with 30 mM HEPES at pH 7.2 (transport medium) and the cells are allowed to equilibrate for 1 hour. Afterwards the apical medium is replaced by 1.5 ml of a solution containing one of the compounds in HBSS/HEPES (10 μg/ml). Cell monolayers are incubated for four hours. Samples of the apical and basolateral compartments are removed at the end of the experiments and used to quantitatively determine the transport of the respective compounds.
The transepithelial electric resistance (TEER) is measured before and after equilibration using a Milicell ERS meter which was connected to a pair of electrodes in order to ensure the integrity of the monolayers formed on the filters. TEER is also measured at the end of the experiments to ensure that the cell monolayer remains coherent.
Samples are taken from the apical and the basolateral side and analysed in a beta counter after adding a scintillation cocktail. All experiments were carried out three times.

[1] = Oral bioavailability and plasma kinetics in mice (serum concentration); format: in vivo, Balb/c mice; settings: mouse; for concentration at 20 min / concentration at 40 min / concentration at 60 min: female, Balb/c, serum, po; for concentration at 20 min: sample at 20 minutes; for concentration at 40 min: sample at 40 minutes; for concentration at 60 min: sample at 60 minutes
FXa = FXa (Homo sapiens, UniProt P00742); test: In vitro inhibition of FXa (Ki according to Dixon); format: biochemical
Sequence of FXa (P00742 235-488 limits assumed): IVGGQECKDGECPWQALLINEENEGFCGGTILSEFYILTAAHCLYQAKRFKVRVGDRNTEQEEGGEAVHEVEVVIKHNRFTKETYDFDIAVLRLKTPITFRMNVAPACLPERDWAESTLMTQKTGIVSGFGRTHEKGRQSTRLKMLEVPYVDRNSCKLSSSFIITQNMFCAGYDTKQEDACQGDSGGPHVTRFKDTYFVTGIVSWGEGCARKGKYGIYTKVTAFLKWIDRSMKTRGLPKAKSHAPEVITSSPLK
Sequence of FXa (P00742 41-179 partner limits assumed): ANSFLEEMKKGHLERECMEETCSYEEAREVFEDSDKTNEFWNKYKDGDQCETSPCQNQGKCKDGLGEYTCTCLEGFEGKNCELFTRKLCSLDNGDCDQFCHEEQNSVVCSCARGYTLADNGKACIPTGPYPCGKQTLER
Experimental: as §1

[2] = list of test substances of Example 17, read-out: Ki human uPA
[3] = summary table, read-out: Ki uPA
[4] = 30 mg/kg, 30 mg/kg oral, read-out: c in the serum 1st analysis
[5] = 300 mg/kg, 300 mg/kg oral, read-out: c in the serum 1st analysis
[6] = 300 mg/kg, 300 mg/kg oral, read-out: c in the serum 2nd analysis
[7] = 10 mg/kg i.v., time of sample collection 0
[8] = 10 mg/kg i.v., time of sample collection 10
[9] = 10 mg/kg i.v., time of sample collection 30
[10] = 7.5 mg/kg, 7.5 mg/kg oral, read-out: c in the serum 1st analysis
[11] = 75 mg/kg, 75 mg/kg oral, read-out: c in the serum 1st analysis

| SMILES | Ki (urokinase (uPA); [2]) [nM] | Ki (urokinase (uPA); read-out: Ki uPA) [nM] | Ki (urokinase (uPA); [3]) [nM] | Ki (Plasmin) [nM] | Ki (PK) [nM] | % amount in the basolateral compartment (Caco-2 cell monolayers; first value column) [%] | % amount in the basolateral compartment (Caco-2 cell monolayers; second value column) [%] | % amount in the basolateral compartment (Caco-2 cell monolayers; third value column) [%] | Caco-2 assay % basolateral (Caco-2 cell monolayers; first series, first value) | Caco-2 assay % basolateral (Caco-2 cell monolayers; first series, second value) | Caco-2 assay % basolateral (Caco-2 cell monolayers; first series, third value) | concentration at 20 min [1, 4] [ng/mL] | concentration at 40 min [1, 4] [ng/mL] | concentration at 60 min [1, 4] [ng/mL] | concentration at 20 min [1, 5] [ng/mL] | concentration at 40 min [1, 5] [ng/mL] | concentration at 60 min [1, 5] [ng/mL] | c in the serum 1st analysis [1, 7] [µg/mL] | c in the serum 1st analysis [1, 8] [µg/mL] | c in the serum 1st analysis [1, 9] [µg/mL] | other results |
| --- | --- | --- | --- | --- | --- | --- | --- | --- | --- | --- | --- | --- | --- | --- | --- | --- | --- | --- | --- | --- | --- |
| C[C@H](NC(=O)C(CO)NS(=O)(=O)Cc1ccccc1)C(=O)NCc1ccc(NC(=N)N)cc1 (stereo partly drawn) [WX-532, Benzylsulfonyl-(D)-Ser-Ala-(4-guanidinobenzyl)amide hydrochloride] | 16 | 16 | 16 | 40000 | 49000 | 0 | 0 | 0 | 0/0/0% | 0/0/0% | 0/0/0% | 1500 | 10900 | 900 | 5800 | 2900 | 12800 | 61.7 | 3.8 | 11.4 | Ki Thrombin (Thrombin): no inh. at 100 μM *); Ki Thrombin (Thrombin; summary table): no inh. at 100 μM *); concentration at 20 min [1, 6]: 6700 ng/mL; concentration at 40 min [1, 6]: 3300 ng/mL; concentration at 60 min [1, 6]: 15000 ng/mL; c in the serum 2nd analysis [1, 7]: 68.8 µg/mL; c in the serum 2nd analysis [1, 8]: 3.5 µg/mL; c in the serum 2nd analysis [1, 9]: 11.2 µg/mL |
| CN(CC(=O)NCc1ccc(NC(=N)N)cc1)C(=O)C(CO)NS(=O)(=O)Cc1ccccc1 (stereo not shown) [WX-538, benzylsulfonyl-(D)-Ser-N-Me-Gly-(4-guanidinobenzyl)amide] | 41 | 41 | 41 | 130000 | 109000 | 0.2 | 0.2 | 0.1 | 0.2% | 0.2% | 0.1% | 100 | 50 | 200 | 2500 | 3500 | 2300 | 45.8 | 5.5 | 0.6 | Ki (Thrombin): > 100000 nM; Ki (Thrombin; summary table): > 100000 nM; Ki (FXa): > 100000 nM; Ki (FXa; summary table): > 100000 nM; Caco-2 assay % basolateral (Caco-2 cell monolayers; second series, first value): 0.1%; Caco-2 assay % basolateral (Caco-2 cell monolayers; second series, second value): 0.1%; Caco-2 assay % basolateral (Caco-2 cell monolayers; second series, third value): 0% |
| N=C(N)Nc1ccc(CNC(=O)[C@H](CCc2ccccc2)NC(=O)C(CO)NS(=O)(=O)Cc2ccccc2)cc1 (stereo partly shown) [WX-550, Benzylsulfonyl-(D)-Ser-HomoPhe-(4-guanidinobenzyl)amide hydrochloride] | 100 | 100 | 100 | 2500 | 268000 | 0 | 3.1 | 0.6 | 0% | 3.1% | 0.6% | – | – | – | – | – | – | – | – | – | Ki (Thrombin): > 50000 nM; Ki (Thrombin; summary table): > 50000 nM; Ki (FXa): > 100000 nM; Ki (FXa; summary table): > 100000 nM; concentration at 20 min [1, 10]: 0 ng/mL; concentration at 40 min [1, 10]: 0 ng/mL; concentration at 60 min [1, 10]: 0 ng/mL; concentration at 20 min [1, 11]: 0 ng/mL; concentration at 40 min [1, 11]: 300 ng/mL; concentration at 60 min [1, 11]: 0 ng/mL; c in the serum 1st analysis ([1]; 2.5 mg/kg i.v., time of sample collection 0): 7.2 µg/mL; c in the serum 1st analysis ([1]; 2.5 mg/kg i.v., time of sample collection 10): 0.7 µg/mL; c in the serum 1st analysis ([1]; 2.5 mg/kg i.v., time of sample collection 30): 0.02 µg/mL |
